Experimental findings from BindingDB's records for doi:10.1016/j.bmcl.2019.126899 (Sanford Burnham Prebys Medical Discovery Institute, 2020) are described below.

This test can be described thus: Inhibition of CXCR6-mediated cell invasion in human SKHEP1 cells after 72 hrs by transwell assay.

Broadly, the IC50 is the concentration at which inhibition is half-maximal. Low readings indicate greater potency in that assay, high ones weaker potency in that assay. On to `COc1cc(C(=O)N[C@@H]2C[C@H]3CCC[C@@H](C2)N3Cc2nc3c(C(F)(F)F)cccc3s2)cc(OC)c1OC`, for which the IC50 came to 2100 nM.
